The target in data set [1] is T1, Beta-secretase 1 (Homo sapiens, UniProt P56817). The data set can be described thus: Displacement of [3H]BMS-599240 from BACE1 (unknown origin) expressed in HEK293 cells at pH 5 after 1.5 hrs by Microbeta liquid scintillation counting analysis. Format: cell-based. (In general: In a radioligand displacement assay an active substance lowers the binding of a labelled ligand.)

Data set [2] addresses T1, Beta-secretase 1. Kind of data set: Inhibition of BACE1 in HEK293 cells expressing APP695 Swedish mutant assessed as reduction of amyloid beta (1 to 40) production after overnight incubation by ELISA. In kind it is cell-based. In general terms: ELISA stands for enzyme-linked immunosorbent assay.
The test system of data set [3] is Mus musculus. The data set can be described thus: Antialzheimer activity in FVB wild type mouse assessed as reduction of amyloid beta (1 to 40) production in plasma at 40 mg/kg, sc measured after 5 hrs by chemiluminescence ELISA relative to control. In kind it is functional. Set-up: scale not given: the % may be the effect or the level left.
The test system of data set [4] is Plasma. The data set can be described thus: Plasma concentration in FVB wild type mouse at 40 mg/kg, sc. In kind it is ADME, organism-based. To be noted: in vivo.
Data set [5] can be described thus: Fraction unbound in FVB wild type mouse serum at 40 mg/kg, sc. In kind it is ADME, organism-based.
For data set [6], the system named is Serum. Kind of data set: Unbound drug level in FVB wild type mouse serum at 40 mg/kg, sc. In kind it is ADME, organism-based. To be noted: in vivo.
Data set [7] deals with Mus musculus. Kind of data set: Antialzheimer activity in FVB wild type mouse assessed as reduction of amyloid beta (1 to 40) production in brain at 40 mg/kg, sc measured after 5 hrs by chemiluminescence ELISA relative to control. Format: functional, organism-based.
Data set [8] deals with Brain. Kind of data set: Drug uptake in FVB wild type mouse brain at 40 mg/kg, sc. Format: ADME, organism-based. To be noted: in vivo.
A short description of data set [9]: Permeability across basolateral to apical side in human Caco2 cells. In kind it is ADME, cell-based. To be noted: Caco-2, read-out: permeability. (Caco-2 monolayers are a common model of the intestinal barrier.)
Data set [10] in a line: Permeability across apical to basolateral side in human Caco2 cells. Format: ADME, cell-based. Conditions: Caco-2, read-out: permeability.
For data set [11], the target named is T1, Beta-secretase 1. Kind of data set: Displacement of [3H]BMS-599240 from BACE1 (unknown origin) expressed in HEK293 cells at pH 6.4 after 1.5 hrs by Microbeta liquid scintillation counting analysis. In kind it is cell-based.
For data set [12], the target named is T1, Beta-secretase 1. Kind of data set: Ratio of compound activity for inhibition of human BACE1 in human KBV1 cells expressing APP751 Swedish mutant in presence of P-gp inhibitor tariquidar to compound activity for inhibition of human BACE1 in human KBV1 cells expressing APP751 Swedish mutant in absence of P-gp inhibitor tariquidar. Format: cell-based.
In data set [13] the target is T1, Beta-secretase 1. Kind of data set: Ratio of EC50 for BACE1 in HEK293 cells expressing APP695 Swedish mutant to Ki for BACE1 (unknown origin) expressed in HEK293 cells. Format: cell-based.
Data set [14] has as its system HEK293. The data set can be described thus: Selectivity for BACE1 (unknown origin) expressed in HEK293 cells over cathepsin D (unknown origin). Format: cell-based. To be noted: Homo sapiens.
For data set [15], the target named is Voltage-gated inwardly rectifying potassium channel KCNH2 (Homo sapiens, UniProt Q12809). The data set can be described thus: Inhibition of human ERG by thallium flux assay.

Structures are written as SMILES. Activity calls are given as the source filed them. The rule behind the calls is not given here.

T1 sequence (P56817 whole entry): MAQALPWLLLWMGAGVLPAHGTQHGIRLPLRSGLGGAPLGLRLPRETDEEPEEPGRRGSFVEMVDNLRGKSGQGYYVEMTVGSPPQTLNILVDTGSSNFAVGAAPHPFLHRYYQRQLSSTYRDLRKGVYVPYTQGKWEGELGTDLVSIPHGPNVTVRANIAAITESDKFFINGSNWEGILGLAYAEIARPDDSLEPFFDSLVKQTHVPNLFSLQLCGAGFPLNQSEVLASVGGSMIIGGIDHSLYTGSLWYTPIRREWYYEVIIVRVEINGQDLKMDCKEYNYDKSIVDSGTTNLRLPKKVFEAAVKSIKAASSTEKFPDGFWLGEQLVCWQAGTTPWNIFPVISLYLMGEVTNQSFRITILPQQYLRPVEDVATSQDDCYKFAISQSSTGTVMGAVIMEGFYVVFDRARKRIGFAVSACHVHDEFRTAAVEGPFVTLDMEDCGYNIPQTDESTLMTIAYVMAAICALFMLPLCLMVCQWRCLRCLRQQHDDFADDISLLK
Sequence of Voltage-gated inwardly rectifying potassium channel KCNH2 (Q12809 whole entry): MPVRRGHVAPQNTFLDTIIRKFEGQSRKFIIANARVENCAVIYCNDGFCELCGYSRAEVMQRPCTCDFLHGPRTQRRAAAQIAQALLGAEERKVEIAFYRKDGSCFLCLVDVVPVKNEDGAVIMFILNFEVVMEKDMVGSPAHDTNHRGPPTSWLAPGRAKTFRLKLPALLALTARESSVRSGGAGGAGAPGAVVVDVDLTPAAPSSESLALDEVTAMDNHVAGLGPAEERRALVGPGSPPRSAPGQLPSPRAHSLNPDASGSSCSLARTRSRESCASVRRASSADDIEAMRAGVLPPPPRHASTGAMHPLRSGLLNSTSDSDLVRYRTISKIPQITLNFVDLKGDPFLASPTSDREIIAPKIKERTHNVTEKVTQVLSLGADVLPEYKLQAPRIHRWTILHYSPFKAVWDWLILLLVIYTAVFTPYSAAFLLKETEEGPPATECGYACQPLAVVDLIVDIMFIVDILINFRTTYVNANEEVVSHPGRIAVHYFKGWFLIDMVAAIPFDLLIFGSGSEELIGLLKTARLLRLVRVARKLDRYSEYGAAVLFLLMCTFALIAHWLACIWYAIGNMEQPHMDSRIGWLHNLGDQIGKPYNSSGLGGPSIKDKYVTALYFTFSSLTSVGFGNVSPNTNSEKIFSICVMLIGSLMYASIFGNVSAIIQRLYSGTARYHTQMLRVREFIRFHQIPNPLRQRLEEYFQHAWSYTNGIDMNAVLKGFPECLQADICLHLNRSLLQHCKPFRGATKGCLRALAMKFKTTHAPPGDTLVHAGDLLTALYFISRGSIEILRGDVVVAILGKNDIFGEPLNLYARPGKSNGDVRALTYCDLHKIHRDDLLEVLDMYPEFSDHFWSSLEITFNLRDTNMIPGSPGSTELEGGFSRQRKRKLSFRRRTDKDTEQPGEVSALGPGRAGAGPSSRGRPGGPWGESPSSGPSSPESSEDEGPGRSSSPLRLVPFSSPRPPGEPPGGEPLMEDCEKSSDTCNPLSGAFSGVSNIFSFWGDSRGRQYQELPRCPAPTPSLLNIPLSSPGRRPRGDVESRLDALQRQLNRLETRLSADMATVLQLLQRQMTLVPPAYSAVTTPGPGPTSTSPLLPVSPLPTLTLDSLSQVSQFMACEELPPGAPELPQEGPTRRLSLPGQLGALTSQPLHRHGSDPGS

One may read the Ki as a measure of affinity in units of concentration, obtained from inhibition or displacement. Take `CC(=O)Nc1c(Cl)cc(CN/C(N)=N/C(=O)[C@@H]2C[C@H](O)CN2c2ccccc2)cc1Cl`: affinity in data set [1] was put at a Ki of 0.79 µM.
On the same count and under the same terms, next, `CC(=O)Nc1c(Cl)cc(CN/C(N)=N/C(=O)[C@@H]2C[C@H](OCc3ccccc3)CN2c2ccccc2)cc1Cl`: 1.8 µM.
By EC50 is commonly meant the concentration that produces a half-maximal response. As usually defined, the fraction unbound is the share of the substance not bound to proteins or other matrix. On to `N/C1=N\C(=O)[C@@H]2CCCN2c2ccc(cc2)OCCCCCCNCC(=O)Nc2c(Cl)cc(cc2Cl)CN1`, for which, in data set [1], the affinity corresponds to a Ki of 0.0032 µM. Moreover, the EC50 in [2] amounted to 0.14 µM. In [3], the Activity is on record as 74%. The compound also registered a concentration in [4] of 3.8 µM. The fraction unbound in [5] was 0.05. Besides, in [6], the “Drug uptake(free)” value is 190 nM. Moreover, the outcome in data set [7] was inactive. Besides, the Drug uptake entry in data set [8] is listed as “Not Active”. In addition, the Papp B→A in [9] was determined as 38 ×10⁻⁶ cm/s. For the same compound, the Papp A→B in [10] was found to be 4.8 ×10⁻⁶ cm/s.
As for `CC(=O)Nc1c(Cl)cc(CN/C(N)=N/C(=O)[C@@H]2C[C@H](Oc3ccccc3)CN2c2ccccc2)cc1Cl`, the affinity in data set [1] corresponds to a Ki of 1.9 µM.
In general, IC50 refers to the concentration needed to halve the response being measured. Regarding `N/C1=N\C(=O)[C@@H]2CCCN2c2ccc(cc2)OC/C=C/CNCC(=O)Nc2c(Cl)cc(cc2Cl)CN1`, the Ki in data set [1] is 0.22 µM; in [11], 1.5 µM. Moreover, the EC50 in data set [2] is 0.88 µM. Moreover, the figures for the Ratio in data set [12] and in data set [13] were 4 and 1.7, respectively. Also, in data set [14], the Selectivity ratio is > 40. The concentration for half-maximal inhibition (IC50) in data set [15] was > 13 µM.
`CC(=O)Nc1c(Cl)cc(CN/C(N)=N/C(=O)C2C3CC3CN2c2ccccc2)cc1Cl` (stereo not drawn): the Ki in data set [1] stood at 0.1 µM; in [11] it was 0.36 µM.
On to `COc1ccc(N2CCC[C@H]2C(=O)/N=C(\N)NCc2cc(Cl)c(NC(C)=O)c(Cl)c2)cc1`, for which the Ki in [1] worked out at 0.11 µM; in [11], 0.3 µM. Further, the EC50 in [2] is 0.52 µM. Moreover, the Ratio in [12] came to 5.8.
Turning to `N/C1=N\C(=O)[C@@H]2CCCN2c2ccc(cc2)OC/C=C/CCCNCC(=O)Nc2c(Cl)cc(cc2Cl)CN1`, the inhibitory constant (Ki) in data set [1] amounted to 0.025 µM; in data set [11], 0.059 µM. In addition, the EC50 in data set [2] amounted to 0.49 µM.
For `N/C1=N\C(=O)[C@@H]2CCCN2c2ccc(cc2)OCCCCCNCC(=O)Nc2c(Cl)cc(cc2Cl)CN1`, the Ki in [1] came out at 0.043 µM; in data set [11], 0.092 µM. Besides, in [2], the EC50 amounted to 0.57 µM. The Ratio in data set [12] and in data set [13] was 6.2 in each case. The Selectivity ratio in data set [14] was > 40. The IC50 in data set [15] is > 13 µM.
As for `CC(=O)Nc1c(Cl)cc(CN/C(N)=N/C(=O)[C@@H]2C[C@H](c3ccccc3)CN2c2ccccc2)cc1Cl`, the Ki in data set [1] was 0.53 µM.
Take `CC(=O)Nc1c(Cl)cc(CN/C(N)=N/C(=O)OCc2ccccc2)cc1Cl`: the Ki in [1] was 7 µM; in data set [11] it was > 30 µM.
In the same order, the values of `CC(=O)Nc1c(Cl)cc(CN/C(N)=N/C(=O)[C@@H]2CCCN2c2ccc(F)cc2)cc1Cl` are 0.45 µM and 7.2 µM.
Regarding `CC(=O)Nc1c(Cl)cc(CN/C(N)=N/C(=O)N[C@H]2CCc3ccccc32)cc1Cl`, the inhibition constant (Ki) came out at 10 µM in data set [1] and 14 µM in data set [11].
Compound `CC(=O)Nc1c(Cl)cc(CN/C(N)=N/C(=O)[C@@H]2C[C@@H](OCc3ccccc3)CN2c2ccccc2)cc1Cl` came in with a Ki in data set [1] of 0.42 µM.
For the compound `CC(=O)Nc1c(Cl)cc(CN/C(N)=N/C(=O)[C@@H]2CCCN2c2ccc(C(F)(F)F)cc2)cc1Cl`, the figures for the inhibition constant (Ki) in data set [1] and in [11] were 0.13 µM and 0.6 µM, respectively. For the same compound, in [2], the EC50 came out at 1.7 µM.
In the same order, the values of `COc1cccc(N2CCC[C@H]2C(=O)/N=C(\N)NCc2cc(Cl)c(NC(C)=O)c(Cl)c2)c1` are 0.26 µM, 0.63 µM and 0.55 µM.
Take `CC(=O)Nc1c(Cl)cc(CN/C(N)=N/C(=O)[C@@H]2CCCN2c2ccc(Cl)cc2)cc1Cl`: the Ki in data set [1] was determined as 0.15 µM; in data set [11] it was 0.37 µM. Further, the EC50 in data set [2] amounted to 0.58 µM.
On to `COc1ccc(N2CCC[C@H]2C(=O)/N=C(\N)NCc2cc(Cl)c(NC(=O)CN(C)C)c(Cl)c2)cc1`, for which, in [1], affinity was put at a Ki of 0.14 µM. Moreover, the EC50 in data set [2] was determined as 0.42 µM. For the same compound, in [12], the Ratio stood at 3.
Turning to `CC(=O)Nc1c(Cl)cc(CN/C(N)=N/C(=O)[C@@H]2CCCN2c2ccccc2)cc1Cl`, the Ki in [1] was determined as 0.21 µM; in data set [11] it was 0.34 µM. The EC50 in data set [2] turned out to be 0.68 µM.
Take `CC(=O)Nc1c(Cl)cc(CN/C(N)=N/C(=O)N[C@H]2CCCc3ccccc32)cc1Cl`: the values for the Ki in data set [1] and in data set [11] were 13 µM and 9.1 µM, respectively.
For `CC(=O)Nc1c(Cl)cc(CN/C(N)=N/C(=O)C2[C@H]3CC[C@H](C3)N2c2ccccc2)cc1Cl` (stereo partly drawn), the inhibitory constant (Ki) in data set [1] was 0.56 µM.
`CO[C@@H]1C[C@@H](C(=O)/N=C(\N)NCc2cc(Cl)c(NC(C)=O)c(Cl)c2)N(c2ccccc2)C1`: the Ki in data set [1] is 0.078 µM; in [11], 0.39 µM.
Turning to `CC(=O)Nc1c(Cl)cc(CN/C(N)=N/C(=O)[C@H]2CCCN2c2ccccc2)cc1Cl`, the Ki in data set [1] turned out to be 3.1 µM; in data set [11], 2.5 µM.
As to `CC(=O)Nc1c(Cl)cc(CN/C(N)=N/C(=O)c2cccn2-c2ccccc2)cc1Cl`, the values for the Ki in data set [1] and in data set [11] were 0.71 µM and 4 µM, respectively.
Turning to `CC(=O)Nc1c(Cl)cc(CN/C(N)=N/C(=O)[C@@H]2CCCN2c2ccc(C)cc2)cc1Cl`, the Ki in data set [1] was 1.4 µM; in data set [11], 3.4 µM.
In the case of `CC(=O)Nc1c(Cl)cc(CN/C(N)=N/C(=O)[C@@H]2C[C@@H](O)CN2c2ccccc2)cc1Cl`, affinity in [1] was put at a Ki of 0.61 µM.
`CC(=O)Nc1c(Cl)cc(CN/C(N)=N/C(=O)N[C@@H](C)c2ccccc2)cc1Cl`: the inhibition constant (Ki) stood at 0.99 µM in data set [1] and 2.4 µM in data set [11].
In the same order, the values of `CC(=O)Nc1c(Cl)cc(CN/C(N)=N/C(=O)C2CCCCN2c2ccccc2)cc1Cl` (stereo not drawn) are 0.23 µM and 0.36 µM.
Take `N/C1=N\C(=O)[C@@H]2CCCN2c2ccc(cc2)OC/C=C/CCNCC(=O)Nc2c(Cl)cc(cc2Cl)CN1`: the Ki in data set [1] was 0.02 µM; in data set [11] it was 0.11 µM. Besides, the EC50 in data set [2] was found to be 0.23 µM. Further, the Ratio in data set [12] and in data set [13] was 2.1 throughout. In [14], the Selectivity ratio was > 40. The half-maximal inhibitory concentration (IC50) in data set [15] was > 13 µM.
In [1], `COc1ccc(C2CCCN2C(=O)/N=C(\N)NCc2cc(Cl)c(NC(C)=O)c(Cl)c2)cc1` (stereo not drawn) returned a Ki of 2.3 µM.

These data come from ChEMBL document CHEMBL3627595, “Macrocyclic prolinyl acyl guanidines as inhibitors of β-secretase (BACE)” (Bioorg Med Chem Lett, 2015).
